Earlier results, collected in patent US20240082136A1, “TOPICAL COMPOSITION” (LILIGER LTD., priority 2021, published 2024).

Legend:
[1] = test system: stratum corneum / dry skin; conditions: topical treatment
cutaneous vasodilation = conditions: in vivo

| Compound | Clinical symptoms of dry skin [1] | Skin moisture [1] | Urea in the stratum corneum [1] | Cutaneous vasodilation (cutaneous vasodilation) |
| --- | --- | --- | --- | --- |
| Cl.N=C(N)NCCC[C@H](N)C(=O)O [arginine hydrochloride] | improvement | increase | significantly increase | – |
| botulinum toxin A | – | – | – | eliminates |
